Measurements: ChEMBL document CHEMBL1201862, “PubChem BioAssay data set” (2004)
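Values below derive from 48-hour exposures of cells grown in 96-well plates, with endpoints linearly interpolated between the two concentrations bracketing the appropriate inhibition level. GI50 = concentration required for 50% inhibition of growth.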 Calls of active or inactive are those of the source. Rule as the data show it: active = GI50 up to about 1.1 µM and inactive = higher.

Assays:
Assay in all cases: NCI anticancer screen, dose series, 48 h
OVCAR-3 = test system: OVCAR-3
NCI/ADR-RES = test system: NCI/ADR-RES
A549 = test system: A549
UO-31 = test system: UO-31
RPMI-8226 = test system: RPMI-8226
HOP-62 = test system: HOP-62
SW-620 = test system: SW-620
SR = test system: SR
HCC 2998 = test system: HCC 2998
MOLT-4 = test system: MOLT-4
K562 = test system: K562
NCI-H460 = test system: NCI-H460
TK-10 = test system: TK-10
OVCAR-5 = test system: OVCAR-5
LOX IMVI = test system: LOX IMVI
RXF 393 = test system: RXF 393

Measured: GI50

N#Cc1cnn2ccn(C3OC(COC(=O)c4ccccc4)C(OC(=O)c4ccccc4)C3OC(=O)c3ccccc3)c12 (stereo not given)
inactive: OVCAR-3 > 21.5 µM | NCI/ADR-RES > 21.5 µM | A549 > 21.5 µM | UO-31 > 21.5 µM | RPMI-8226 > 21.5 µM | HOP-62 > 21.5 µM | SW-620 > 21.5 µM | SR > 31.6 µM | HCC 2998 > 21.5 µM | MOLT-4 > 21.5 µM | K562 > 21.5 µM | NCI-H460 > 21.5 µM | TK-10 > 31.6 µM | OVCAR-5 > 21.5 µM | LOX IMVI > 31.6 µM | RXF 393 > 21.5 µM

NS(=O)(=O)c1ccc(NC2(C(=O)O)CCCC2)cc1
inactive: OVCAR-3 > 100 µM | NCI/ADR-RES > 100 µM | A549 > 100 µM | UO-31 > 100 µM | RPMI-8226 > 100 µM | HOP-62 > 100 µM | SW-620 > 100 µM | SR > 100 µM | HCC 2998 > 100 µM | MOLT-4 > 100 µM | K562 > 100 µM | NCI-H460 > 100 µM | TK-10 > 100 µM | OVCAR-5 > 100 µM | LOX IMVI > 100 µM | RXF 393 > 100 µM

Cn1cnc(N2CCCC2)c(C#N)c1=S
inactive: OVCAR-3 > 100 µM | NCI/ADR-RES > 100 µM | A549 > 100 µM | UO-31 23.2 µM | RPMI-8226 > 100 µM | HOP-62 > 100 µM | SW-620 > 100 µM | SR > 100 µM | HCC 2998 > 100 µM | MOLT-4 > 100 µM | K562 > 100 µM | NCI-H460 > 100 µM | TK-10 > 100 µM | OVCAR-5 > 100 µM | LOX IMVI > 100 µM | RXF 393 > 100 µM

CCN1CCC(O)(c2ccc([N+](=O)[O-])cc2)C(C(=O)c2ccc([N+](=O)[O-])cc2)C1 (stereo not given)
inactive: OVCAR-3 14.8 µM | NCI/ADR-RES 53.8 µM | A549 69 µM | UO-31 17.3 µM | RPMI-8226 3.33 µM | HOP-62 77.3 µM | SW-620 25.1 µM | SR 33 µM | HCC 2998 17.7 µM | MOLT-4 19.3 µM | K562 36.8 µM | NCI-H460 28.8 µM | TK-10 17.8 µM | OVCAR-5 52.6 µM | LOX IMVI 21.6 µM | RXF 393 14.4 µM

C=C(C)CCC1CC=[N+]([O-])OC1C(C)(C)C (stereo not given)
inactive: OVCAR-3 66.1 µM | NCI/ADR-RES 27.3 µM | A549 20.9 µM | UO-31 30.3 µM | RPMI-8226 41.3 µM | HOP-62 79.3 µM | SW-620 44.5 µM | SR 36.3 µM | HCC 2998 > 100 µM | MOLT-4 39.2 µM | K562 > 100 µM | NCI-H460 51.8 µM | TK-10 > 100 µM | OVCAR-5 > 100 µM | LOX IMVI 18.5 µM | RXF 393 18.2 µM
